Data set [1] in a line: In vitro drug release by dialysis. Conditions: pH 7.4 and 6.0. The format is physicochemical. The method, then:
DOX release from the nanoparticles was studied at pH 6.0, 6.6 and 7.4. A certain amount of DOX-loaded freeze-dried nanoparticles was dispersed in 200 μL of the respective buffer solution and allowed to stabilize for 30 minutes before being placed in a dialysis membrane with a molecular weight cut-off of 2000 (Spectra/Por). The dialysis bag was then immersed in 25 mL of PBS with pH 6.0, 6.6 or 7.4 at 37° C. The samples were drawn at specific time intervals and the drug concentration was analyzed using the UV-VIS spectrophotometer as stated in paragraph A(vi) of the present example.

For data set [2] the following is noted: cited from earlier work.

As for `COc1cccc2c1C(=O)c1c(O)c3c(c(O)c1C2=O)C[C@@](O)(C(=O)CO)C[C@@H]3O[C@H]1C[C@H](N)[C@H](O)[C@H](C)O1` [DOX, doxorubicin], the “effect of pH on release of free DOX from the dialysis bag” value in data set [1] is reported as “no significant effect of pH”.

The pKa is the pH at which an ionisable group is half protonated. In the case of `Nc1nc2ncc(CNc3ccc(C(=O)N[C@@H](CCC(=O)O)C(=O)O)cc3)nc2c(=O)[nH]1` [Folic acid], the pKa in data set [2] is around 5.4.

These data come from patent US7316816B2, “Temperature and pH sensitive copolymers” (Agency for Science Technology and Research, priority 2004, dated 2008).
